Here are results for eleven compounds from patent US20050171216A1, “Germicidal compositions containing phthalaldehyde mixtures and methods of using such compositions for disinfection or sterilization” (priority 2004, published 2005).

One data set can be described thus: solubility in water. It is filed as physicochemical. To be noted: for Concentration, Saturated: saturated aqueous germicidal solution, pH not adjusted.
Data set [1] relates to Mycobacterium terrae bacteria. As to the kind of experiment: bacterial suspension test (killing of at least 1×10^6/mL bacteria). It is filed as cell-based. The conditions noted are these: for Log Reductions/mL: 20° C.; for Germicidal Efficacy: summary Table 14. Here is the method: The bacterial suspension test that was employed is described in Section VII.
The solutions were prepared by adding the appropriate amounts of the germicidal compounds to an aqueous solution. Unless otherwise mentioned all concentrations reported herein are expressed in (w/v) %. The pH of the solution was not adjusted. The tests were conducted at a temperature of about 20° C. (room temperature). The results are presented in terms of log reductions/mL. It is understood that these examples, as well as the other examples herein, are to be construed as merely illustrative, and not limiting.
In this test method, 9 mL of the germicide to be tested is placed in a tube, put into a water bath and allowed to come to the desired temperature. One mL of the test organism, including at least 7 logs/mL of Mycobacterium terrae bacteria, is added to the 9 mL of the germicide to be tested. […] It will be appreciated by those skilled in the art that other concentrations may be utilized by proper dilution and accounting.
At appropriate time intervals, 1 mL aliquots of the germicide-cell suspension were removed and added directly into 9 mL of a 1% glycine solution (neutralizer) and mixed thoroughly to neutralize the germicide in the transferred suspension. The glycine solution was prepared from solid glycine, which is available from VWR Scientific Products, among others. The above-identified 10 mL neutralized solution was then poured through a membrane filter having an average pore size of 0.45 micrometers. The filter was then rinsed twice with at least 150 mL of the 1% glycine solution per rinse. The filter was then placed on an agar plate and incubated for twenty-one days at 37° C. In the above procedure, if dilution was needed, then the 1 mL germicidal-cell suspension was diluted in 99 mL of a phosphate buffer before addition to the 9 mL of the 1% glycine solution. The phosphate buffer was DiLu-LoK™ Butterfields Phosphate Buffer, available from Hardy Diagnostics, of Santa Maria, Calif.
The surviving colonies are then counted. The data is plotted as S/So vs. time. So is the initial count of the bacteria in the above 10 mL solution which is at least 10^6 bacteria/mL, and S is the surviving bacteria from the above filter on the agar plate. The results of the experiments were presented in terms of log reductions. Log reduction is the difference between log(So) and log(S). As one example, if log(So)=6.2, and if there were 100 survivors, then the log(S)=2, and the log reduction was reported as 4.2.

Some results are limits rather than exact numbers.

Turning to `O=CC(C=O)c1cccc(C(=O)O)c1[N+](=O)[O-]` [3-(1-formyl-2-oxoethyl)-2-nitro-benzoic acid], in the data set “solubility in water”, the “Concentration, Saturated” value is on record as “(˜2.1%) w/v %”. In addition, in data set [1] (Saturated (˜2.1% w/v), 5 min), the “Log Reductions/mL” value was 4.0 log reductions/mL.

`O=Cc1ccccc1C=O` [OPA, phthalaldehyde]: the solubility in water result in the data set “solubility in water” is “about 5 % by weight”. The “Log Reductions/mL” value in data set [1] (0.14%, 5 min) is listed as 4.8 log reductions/mL; in data set [1] (0.28%, 5 min), 5.5 log reductions/mL. For the same compound, the “Germicidal Efficacy” value in data set [1] is given as “Good”.

Regarding `O=Cc1ccc(C=O)cc1` [TPA, terephthalaldehyde], in data set [1] (0.2%, dissolved in 20% isopropanol, 5 min), the “Log Reductions/mL” value is listed as “Confluent”. Moreover, in data set [1], the “Germicidal Efficacy” value was “Poor”.

`O=Cc1ccccc1C(O)S(=O)(=O)[O-].[Na+]` (stereo not drawn) [(2-formyl-phenyl)-hydroxy-methane sulfonic acid, sodium salt]: the “Log Reductions/mL” value in data set [1] (9.1%, no dialdehyde, 5 min, listed as (2-formyl-phenyl)-hydroxy-methane sulfonate, sodium salt) is reported as “confluent”; in data set [1] (9.1%, no dialdehyde, 5 min, listed as H-SULF, sodium salt) it was “Confluent”.

As for 4-pyridinyl-propanedial, the “Concentration, Saturated” value in the data set “solubility in water” is on record as “(˜2.3%) w/v %”. In addition, the “Log Reductions/mL” value in data set [1] (Saturated (˜2.3% w/v), 5 min) is reported as 4.0 log reductions/mL.

For the compound `O=Cc1ccc(F)cc1C=O` [4-fluoro-phthalaldehyde], the “Log Reductions/mL” value in data set [1] (0.25%, 60 minutes exposure) is “Total Kill”.

On to `O=Cc1cccc(C=O)c1` [IPA, isophthalaldehyde], for which the “Log Reductions/mL” value in data set [1] (0.3%, dissolved in 20% isopropanol, 5 min) is “Confluent”; in data set [1] (0.3%, dissolved in 20% isopropanol, 5 min (Table 15)), “Confluent”. In data set [1], the “Germicidal Efficacy” value is given as “Poor”.

Turning to `O=Cc1ccc(Br)cc1C=O` [4-bromo-phthalaldehyde], the “Log Reductions/mL” value is 5.6 log reductions/mL in data set [1] (0.1%, 10 minutes) and “Total Kill” in data set [1] (0.1%, 30 minutes).

Turning to `O=CC(c1ccccc1)C(O)S(=O)(=O)[O-].[Na+]` (stereo not drawn) [1-hydroxy-3-oxo-2-phenyl-propane-1-sulfonic acid, sodium salt], the “Log Reductions/mL” value in data set [1] (0.6%, 5 min) is reported as 2.1 log reductions/mL; in data set [1] (0.6%, 20 min), 2.5 log reductions/mL; in data set [1] (0.6%, 25 min), 2.9 log reductions/mL; in data set [1] (0.6%, 60 min, sodium salt), “total kill”; in data set [1] (2.5%, 10 min, sodium salt), “total kill”.

Consider `O=Cc1ccc(Cl)cc1C=O` [4-chloro-phthalaldehyde], for which the “Log Reductions/mL” value in data set [1] (0.2 w/v %, 5 min) is listed as 5.9 log reductions/mL; in data set [1] (2.7 w/v % in 20% isopropanol, 5 min) it was “Total Kill”.

With `O=CC(C=O)c1ccccc1` [phenyl-propanedial], the solubility in water result in “solubility in water” was “about 1%”. Also, the “Log Reductions/mL” value turned out to be 2.1 log reductions/mL in data set [1] (0.2%, 60 min); 2.1 log reductions/mL in data set [1] (0.22%, 60 min); 2.1 log reductions/mL in data set [1] (0.3%, 30 min); 2.1 log reductions/mL in data set [1] (0.33%, 30 min); 2.5 log reductions/mL in data set [1] (0.4%, 30 min); 2.5 log reductions/mL in data set [1] (0.44%, 30 min). Also, the “Log Reductions/mL” value is recorded as under 2.5 log reductions/mL in data set [1] (0.66%, 5 min); 2.5 log reductions/mL in data set [1] (0.66%, 10 min); 2.5 log reductions/mL in data set [1] (0.7%, 10 min); 4.5 log reductions/mL in data set [1] (˜1%, 5 min (Table 15)).
